Experimental data published in patent US20030224485A1, “Expression system for ABC transporters” (priority 2002, published 2003).
Each block holds one compound with its values, some of them ahead of it.

Tests used:
[1] = molecular target: T1, co-expressed N and C halves of ABCR (Homo sapiens, UniProt P78363); experiment: 8-azido-ATP photoaffinity labeling of membranes from transfected cells; format: binding; details: 1 mM ATP added prior to labeling with 1.5 μM 8-azido-[α-32P]ATP; FIG. 5A lane 4; C-half labeled
T1 construct: N-half (amino acids 1-1325) and C-half (amino acids 1326-2273) of ABCR; added initiator Met (ATG in the forward primer, read by me) (N); made in house; host or cells: COS-1 (co-transfection)
T1 sequence (P78363 1-1325): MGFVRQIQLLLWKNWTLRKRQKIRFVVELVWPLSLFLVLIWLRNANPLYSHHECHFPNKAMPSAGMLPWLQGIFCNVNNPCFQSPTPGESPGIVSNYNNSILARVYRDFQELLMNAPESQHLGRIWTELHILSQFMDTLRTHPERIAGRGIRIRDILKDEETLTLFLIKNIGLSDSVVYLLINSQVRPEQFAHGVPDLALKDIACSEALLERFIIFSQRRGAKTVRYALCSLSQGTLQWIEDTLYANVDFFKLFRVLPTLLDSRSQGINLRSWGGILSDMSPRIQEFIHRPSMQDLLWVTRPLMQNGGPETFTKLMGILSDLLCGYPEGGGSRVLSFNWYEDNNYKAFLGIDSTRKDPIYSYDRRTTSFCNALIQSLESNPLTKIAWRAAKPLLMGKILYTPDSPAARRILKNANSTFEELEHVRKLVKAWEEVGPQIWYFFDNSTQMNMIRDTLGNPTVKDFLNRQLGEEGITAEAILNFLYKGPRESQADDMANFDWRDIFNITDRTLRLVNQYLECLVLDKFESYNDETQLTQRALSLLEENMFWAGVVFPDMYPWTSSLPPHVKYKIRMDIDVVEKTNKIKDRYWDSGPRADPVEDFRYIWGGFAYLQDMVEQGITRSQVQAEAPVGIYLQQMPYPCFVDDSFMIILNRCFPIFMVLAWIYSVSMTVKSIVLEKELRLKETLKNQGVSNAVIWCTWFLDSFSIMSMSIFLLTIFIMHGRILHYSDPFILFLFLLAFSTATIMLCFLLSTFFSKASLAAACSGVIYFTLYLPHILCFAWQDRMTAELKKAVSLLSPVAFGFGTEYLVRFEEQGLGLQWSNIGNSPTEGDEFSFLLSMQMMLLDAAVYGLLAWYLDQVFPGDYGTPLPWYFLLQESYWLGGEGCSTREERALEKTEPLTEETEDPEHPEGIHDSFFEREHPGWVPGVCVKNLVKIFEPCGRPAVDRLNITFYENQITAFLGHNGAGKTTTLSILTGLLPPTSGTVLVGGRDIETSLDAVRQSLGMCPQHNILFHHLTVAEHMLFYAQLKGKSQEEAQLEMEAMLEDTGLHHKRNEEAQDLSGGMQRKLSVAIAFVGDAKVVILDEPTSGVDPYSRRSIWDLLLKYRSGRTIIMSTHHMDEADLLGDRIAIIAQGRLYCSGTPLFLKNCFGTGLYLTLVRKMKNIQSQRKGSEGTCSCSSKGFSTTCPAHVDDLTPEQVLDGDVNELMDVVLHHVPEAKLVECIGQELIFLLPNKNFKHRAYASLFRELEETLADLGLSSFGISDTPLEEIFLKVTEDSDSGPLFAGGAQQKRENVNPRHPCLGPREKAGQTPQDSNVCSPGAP
T1 sequence (P78363 1326-2273): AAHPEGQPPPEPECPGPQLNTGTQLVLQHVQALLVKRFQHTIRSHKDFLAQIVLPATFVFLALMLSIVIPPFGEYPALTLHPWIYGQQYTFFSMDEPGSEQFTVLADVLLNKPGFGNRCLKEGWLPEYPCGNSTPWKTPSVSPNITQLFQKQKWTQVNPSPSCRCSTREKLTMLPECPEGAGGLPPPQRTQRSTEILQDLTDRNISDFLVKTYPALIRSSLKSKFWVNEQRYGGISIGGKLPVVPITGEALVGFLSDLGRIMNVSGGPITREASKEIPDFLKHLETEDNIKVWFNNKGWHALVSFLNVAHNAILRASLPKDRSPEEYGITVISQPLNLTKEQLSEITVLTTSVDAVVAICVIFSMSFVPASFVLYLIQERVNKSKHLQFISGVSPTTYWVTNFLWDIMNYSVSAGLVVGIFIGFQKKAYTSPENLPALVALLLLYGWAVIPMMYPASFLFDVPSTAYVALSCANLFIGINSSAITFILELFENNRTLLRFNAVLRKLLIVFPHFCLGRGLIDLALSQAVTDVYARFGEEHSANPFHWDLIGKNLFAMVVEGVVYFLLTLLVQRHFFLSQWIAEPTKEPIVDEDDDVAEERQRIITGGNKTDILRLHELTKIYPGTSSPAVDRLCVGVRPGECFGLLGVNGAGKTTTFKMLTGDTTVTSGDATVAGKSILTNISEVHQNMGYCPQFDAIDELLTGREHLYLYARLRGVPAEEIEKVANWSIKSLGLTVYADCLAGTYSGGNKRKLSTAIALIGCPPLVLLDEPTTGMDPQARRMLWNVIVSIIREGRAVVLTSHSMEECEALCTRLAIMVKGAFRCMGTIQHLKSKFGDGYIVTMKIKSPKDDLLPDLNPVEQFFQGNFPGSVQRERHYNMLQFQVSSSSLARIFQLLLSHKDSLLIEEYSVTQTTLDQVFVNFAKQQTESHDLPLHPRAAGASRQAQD
Procedure: (§1) Preparation of Membranes—Membranes from transfected cells were prepared as described previously (Bungert, S., Molday, L. L., and Molday, R. S. (2001) J Biol Chem 276(26), 23539-46). In some experiments, the protocol was scaled down and the cell homogenate from one or two 10-cm dishes, after passing through a 26-gauge needle (6 times), was centrifuged on a discontinuous gradient consisting of 5% and 60% sucrose for 30 min at 30,000 rpm (60,000×g) in a TLS55 rotor (Beckman Optima TL ultracentrifuge).
(§2) 8-Azido-ATP Photoaffinity Labeling—Membranes (50-150 μg protein) in 50 μl of labeling buffer (20 mM Tris-HCl, pH 7.4, 140 mM NaCl, 5 mM MgCl2) were incubated with 1-4 μM 8-azido-[α-^32P]ATP (Perkin-Elmer Life Science; 20 Ci/mmol) on ice, with gentle shaking, under UV light (254 nm) for 10 min at a distance of 10 cm. Ice-cold 20 mM Tris-HCl, pH 7.4, was added and the membranes were collected by centrifugation (TLA45 rotor, 55000 g, 15 min). The membrane suspension (200 μl in TBS [Tris-HCl, pH 7.4, 140 mM NaCl]) was added to 200 μl of 2% Triton X-100 in TBS, pH 7.4). After 30 min on ice, the cleared extract was mixed with 25 μl antibody coupled to Sepharose 2B for 1-12 h at 4° C. The beads were washed 4 times in TBS containing 0.2% Triton X-100 and eluted twice, 30 μl each, in 4% SDS, 0.2% Triton X-100, TBS. […]

full-length ABCR [2] = molecular target: T2, full-length ABCR (Homo sapiens, UniProt P78363); experiment: as above; format: binding; set-up: Membranes from transfected cells expressing either full-length ABCR (lanes 1 & 2); expressed in transfected cells; host or cells: transfected cells (COS-1 or EBNA293); details: 1 mM ATP added prior to labeling with 1.5 μM 8-azido-[α-32P]ATP; FIG. 5A lane 2
T2 sequence (P78363 whole entry): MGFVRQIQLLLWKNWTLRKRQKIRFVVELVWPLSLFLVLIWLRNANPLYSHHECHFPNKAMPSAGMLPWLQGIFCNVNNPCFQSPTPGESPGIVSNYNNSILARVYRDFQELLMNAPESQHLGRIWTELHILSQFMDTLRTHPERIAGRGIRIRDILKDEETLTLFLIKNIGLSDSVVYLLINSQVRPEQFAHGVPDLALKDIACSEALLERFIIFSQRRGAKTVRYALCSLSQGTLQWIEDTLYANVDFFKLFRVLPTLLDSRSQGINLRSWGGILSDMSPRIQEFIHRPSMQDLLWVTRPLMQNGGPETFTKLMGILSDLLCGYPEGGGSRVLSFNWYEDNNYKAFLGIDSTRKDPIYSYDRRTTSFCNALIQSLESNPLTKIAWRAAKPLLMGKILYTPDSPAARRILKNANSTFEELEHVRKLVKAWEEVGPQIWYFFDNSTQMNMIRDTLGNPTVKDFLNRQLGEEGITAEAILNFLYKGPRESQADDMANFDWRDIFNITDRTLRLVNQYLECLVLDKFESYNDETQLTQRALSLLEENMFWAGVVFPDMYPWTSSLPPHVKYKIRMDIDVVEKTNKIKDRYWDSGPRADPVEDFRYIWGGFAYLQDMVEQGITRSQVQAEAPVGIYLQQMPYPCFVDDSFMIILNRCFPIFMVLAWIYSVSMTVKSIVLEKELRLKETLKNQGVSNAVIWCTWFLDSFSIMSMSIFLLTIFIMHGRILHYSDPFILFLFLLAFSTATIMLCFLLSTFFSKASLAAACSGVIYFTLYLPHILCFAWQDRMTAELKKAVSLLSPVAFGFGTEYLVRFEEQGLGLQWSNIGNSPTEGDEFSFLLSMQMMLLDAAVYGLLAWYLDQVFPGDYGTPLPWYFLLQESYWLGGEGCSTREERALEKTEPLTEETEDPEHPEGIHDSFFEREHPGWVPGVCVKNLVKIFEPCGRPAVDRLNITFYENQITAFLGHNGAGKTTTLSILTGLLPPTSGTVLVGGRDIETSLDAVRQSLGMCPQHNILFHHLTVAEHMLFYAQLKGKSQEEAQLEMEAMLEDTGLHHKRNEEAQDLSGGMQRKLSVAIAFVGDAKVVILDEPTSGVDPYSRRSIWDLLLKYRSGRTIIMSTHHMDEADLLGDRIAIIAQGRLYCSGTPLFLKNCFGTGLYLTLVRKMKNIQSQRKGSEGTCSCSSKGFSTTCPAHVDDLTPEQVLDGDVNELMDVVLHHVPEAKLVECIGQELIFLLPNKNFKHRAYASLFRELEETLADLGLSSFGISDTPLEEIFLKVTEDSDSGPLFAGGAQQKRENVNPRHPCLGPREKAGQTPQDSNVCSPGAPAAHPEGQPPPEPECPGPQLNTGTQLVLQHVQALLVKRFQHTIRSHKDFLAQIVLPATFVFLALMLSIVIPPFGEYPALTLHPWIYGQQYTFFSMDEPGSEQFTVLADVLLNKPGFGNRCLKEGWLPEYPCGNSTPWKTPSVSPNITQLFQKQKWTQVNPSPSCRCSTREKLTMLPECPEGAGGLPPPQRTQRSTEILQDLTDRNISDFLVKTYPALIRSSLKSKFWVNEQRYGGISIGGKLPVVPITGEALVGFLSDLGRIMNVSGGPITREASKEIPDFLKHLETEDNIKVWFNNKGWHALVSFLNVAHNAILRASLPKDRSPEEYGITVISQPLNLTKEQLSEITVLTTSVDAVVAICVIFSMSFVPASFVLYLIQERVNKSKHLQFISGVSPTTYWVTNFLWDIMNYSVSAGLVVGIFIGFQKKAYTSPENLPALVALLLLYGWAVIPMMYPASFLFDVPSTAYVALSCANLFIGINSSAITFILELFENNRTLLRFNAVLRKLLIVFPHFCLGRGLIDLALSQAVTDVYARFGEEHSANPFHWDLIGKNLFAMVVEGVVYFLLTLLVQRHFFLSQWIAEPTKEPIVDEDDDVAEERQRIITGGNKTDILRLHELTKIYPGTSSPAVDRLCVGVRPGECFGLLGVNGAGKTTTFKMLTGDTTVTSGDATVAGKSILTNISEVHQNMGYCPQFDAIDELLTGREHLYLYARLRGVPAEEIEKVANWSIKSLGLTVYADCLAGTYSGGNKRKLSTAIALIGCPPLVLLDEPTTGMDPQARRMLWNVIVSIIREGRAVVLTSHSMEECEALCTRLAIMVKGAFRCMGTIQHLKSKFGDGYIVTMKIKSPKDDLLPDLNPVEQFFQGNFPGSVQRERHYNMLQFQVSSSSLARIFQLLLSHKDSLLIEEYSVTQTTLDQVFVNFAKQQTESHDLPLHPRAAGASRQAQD
Procedure: as §1, §2

ABCR = molecular target: T3, ABCR (Homo sapiens, UniProt P78363); experiment: 8-azido-ATP/ADP trapping in membranes from transfected cells; format: binding; details: 5 μM 8-azido-[α-32P]ATP, 37° C.; 800 μM orthovanadate, 50 μM all-trans retinal, or 10 mM MgATP in wash step
T3 construct: Membranes from transfected cells expressing either full-length ABCR (lanes 1 & 2) or co-expressing the N and C halves; expressed in transfected cells; host or cells: transfected cells (COS-1 or EBNA293)
T3 sequence (P78363 whole entry): as above
Procedure: 8-Azido-ATP Trapping—Membranes were incubated with 5 [M 8-azido-[α-^32P]ATP in 50 μl of labeling buffer with or without 800 μM sodium orthovanadate for 10 min at 37° C. All-trans retinal and 50 μM DTT were added where indicated. Binding was stopped by the addition of ice-cold 20 mM Tris-HCl, pH 7.4, the membranes were collected by centrifugation and washed one more time. Samples exposed to orthovanadate were washed in the presence of 800 μM orthovanadate. In some experiments MgATP (10 mM) was included in the wash step, but had no effect. The membranes were suspended in 30 μl of 20 mM Tris-HCl, pH 7.4, irradiated with UV light for 10 min on ice, diluted to 200 μl with TBS, pH 7.4, and solubilized as described above for azido-ATP binding.
To gain more insight into the properties of the NBD of ABCR, trapping experiments were carried out using 8-azido-[α^32P]ATP.

[3] = molecular target: T1, co-expressed N and C halves of ABCR; experiment: Retinal-stimulated ATPase activity of purified protein reconstituted in lipid vesicles; format: biochemical; details: co-expressed in COS-1 cells, purified on Rim 3F4 column, 50 μM [α32P]ATP
Procedure: (§3) Membranes (from two 10 cm dishes) were solubilized in 0.5 ml of 1% Triton-X100 in Buffer A (140 mM NaCl, 20 mM Tris-HCl, pH 7.4) for 20 min on ice. For ATPase assays, the membrane preparation step was omitted and the cell suspension was solubilized directly in Buffer B (10 mg/ml soybean phospholipids, 10% glycerol, 1 mM dithiothreitol, 100 mM NaCl, 3 mM MgCl2, 50 mM NaHEPES, pH 7.4) containing 18 mM CHAPS. The supernatant after a 10 min centrifugation at 40,000 rpm (TLA100.4 rotor) was mixed with 50 μl Rim3F4 Sepharose 2B for 1 h at 4° C. The beads were washed 6 times in Buffer A containing 0.2% Triton X-100 or Buffer B containing 10 mM CHAPS and eluted with 4% SDS (for electrophoresis) or 0.2 mg/ml Rim3F4 peptide (for reconstitution and determination of ATPase activity). Purified protein (24 μl) was incubated with 6 μl of 50 mg/ml lipid (1:1 mixture of dioleoylphosphatidylethanolamine and brain polar lipid, by weight) and 3 μl n-octylglucoside for 30 min on ice. The mixture was diluted rapidly with 200 μl of Buffer C (1 mM dithiothreitol, 140 mM NaCl, 25 mM NaHEPES, pH 7.4) and passed through a 200 μl Extracti-gel column (Pierce). The flow-through containing the reconstituted protein was used for determination of ATPase activity.
(§4) ATPase activity was measured as described previously (Ahn, J., Wong, J. T., and Molday, R. S. (2000) J Biol Chem 275(27), 20399-405) using 50 μM [α^32P]ATP and thin layer chromatography. The all-trans retinal concentration was determined spectrophotometrically (λ383 nm=42.88 mM^−1 cm^−1). Protein concentration was estimated from the eluate before reconstitution by laser densitometry of Coomassie blue stained gels using bovine serum albumin as a standard. […] Direct protein measurements after reconstitution by densitometry of Western blots was about half of that in the eluate. […]
(§5) ATPase Activity of Expressed N and C Halves—The basal and retinal activated ATPase activity of full-length ABCR and the N and C halves individually or co-expressed in COS-1 cells was determined after immunoaffinity purification and reconstitution into lipid vesicles. […]

[4] = molecular target: T4, individually expressed C half of ABCR (Homo sapiens, UniProt P78363); experiment: as above; format: biochemical; details: individually expressed in COS-1 cells
T4 construct: N-half (amino acids 1-1325) and C-half (amino acids 1326-2273) of ABCR; added initiator Met (ATG in the forward primer, read by me) (N); made in house; host or cells: COS-1
T4 sequence (P78363 1326-2273): T1 sequence (P78363 1326-2273)
Procedure: as §3, §4, §5

[5] = molecular target: T5, individually expressed N half of ABCR containing 1D4 epitope tag (N*) (Homo sapiens, UniProt P78363); experiment: as above; format: biochemical; details: individually expressed in COS-1 cells, purified on Rho1D4-Sepharose
T5 construct: N-half (amino acids 1-1325) and C-half (amino acids 1326-2273) of ABCR; made in house; host or cells: COS-1
T5 sequence (P78363 1-1325): T1 sequence (P78363 1-1325)
Procedure: as §3, §4, §5

full-length ABCR [6] = molecular target: T2, full-length ABCR; experiment: as above; format: biochemical; set-up: Membranes from transfected cells expressing either full-length ABCR (lanes 1 & 2) or co-expressing the N and C halves; expressed in transfected cells; host or cells: transfected cells (COS-1 or EBNA293); details: expressed in COS-1 cells, purified on Rim 3F4 column, 50 μM [α32P]ATP
Procedure: Membranes (from two 10 cm dishes) were solubilized in 0.5 ml of 1% Triton-X100 in Buffer A (140 mM NaCl, 20 mM Tris-HCl, pH 7.4) for 20 min on ice. For ATPase assays, the membrane preparation step was omitted and the cell suspension was solubilized directly in Buffer B (10 mg/ml soybean phospholipids, 10% glycerol, 1 mM dithiothreitol, 100 mM NaCl, 3 mM MgCl2, 50 mM NaHEPES, pH 7.4) containing 18 mM CHAPS. The supernatant after a 10 min centrifugation at 40,000 rpm (TLA100.4 rotor) was mixed with 50 μl Rim3F4 Sepharose 2B for 1 h at 4° C. The beads were washed 6 times in Buffer A containing 0.2% Triton X-100 or Buffer B containing 10 mM CHAPS and eluted with 4% SDS (for electrophoresis) or 0.2 mg/ml Rim3F4 peptide (for reconstitution and determination of ATPase activity). […]
ATPase activity was measured as described previously (Ahn, J., Wong, J. T., and Molday, R. S. (2000) J Biol Chem 275(27), 20399-405) using 50 μM [α^32P]ATP and thin layer chromatography. The all-trans retinal concentration was determined spectrophotometrically (λ383 nm=42.88 mM^−1 cm^−1). […]
as §5

effect on 8-azido-ATP photoaffinity labeling [1]: essentially abolished
effect on 8-azido-ATP photoaffinity labeling (full-length ABCR [2]): essentially abolished
SMILES: Nc1ncnc2c1ncn2[C@@H]1O[C@H](COP(=O)(O)OP(=O)(O)OP(=O)(O)O)[C@@H](O)[C@H]1O [ATP]

effect on 8-azido ATP/ADP trapping (ABCR): had no effect
SMILES: Nc1ncnc2c1ncn2[C@@H]1O[C@H](COP(=O)(O)OP(=O)([O-])OP(=O)([O-])O)[C@@H](O)[C@H]1O.[Mg+2] [MgATP]

stimulation of ATPase activity by all-trans retinal [3]: 1-2 fold
stimulation of ATPase activity by retinal [4]: not stimulated
stimulation of ATPase activity by retinal [5]: not stimulated
stimulation of ATPase activity by all-trans retinal (full-length ABCR [6]): 1-2 fold
SMILES: CC1=C(/C=C/C(C)=C/C=C/C(C)=C/C=O)C(C)(C)CCC1 [all-trans retinal]
effect on 8-azido ATP/ADP trapping (ABCR): not dependent on sodium orthovanadate or influenced

effect on 8-azido ATP/ADP trapping (ABCR): not dependent
SMILES: [Na+].[Na+].[Na+].[O]=[V]([O-])([O-])[O-] [sodium orthovanadate]
